In patent publication US9913858B2, “Prevention and treatment of toxicosis” (priority 2013, dated 2018):

Tests used:
mice = assay: Lolitrem B intoxication in mice, tremor and movement analysis; assay type: in vivo; conditions: lolitrem B 2 mg/kg IP
Procedure: FIG. 1. Tremor analysis of animals treated with a single dose of lolitrem B toxin. Tremor analysis: FFT frequency analysis from a mouse prior to (A) and 6 hours post lolitrem B injection 2 mg/kg i.p. (B). Low frequency (0-7 Hz) power output represents primarily movement. […] (D) Tremor-Motion power ratio at one hour post lolitrem B injection (n=4) and vehicle only control (n=4) (*p<0.05, lolitrem B (2 mg/kg i.p.) vs vehicle).
Lolitrem B was tested in mice to establish this as a suitable model for perennial ryegrass toxicosis and lolitrem B intoxication in grazing animals. […] These signs are consistent with clinical signs seen in grazing animals (See FIG. 1).

[1] = Serum and cerebrospinal fluid bromide concentrations in the sheep trial; assay type: in vivo; conditions: intoxicated sheep
Procedure: Venous blood samples collected for biochemical analysis and haematocrit (PCV), and urine for USG, at three specific time points during the experiment for all animals: 1) on entry to the trial; 2) on date of entry to the end of trial protocol and, 3) on day of necropsy.
A full clinical examination was performed prior to euthanasia. At euthanasia, 100 I.U. heparin (Provet Riverina Pty Ltd) was injected into the jugular vein, followed shortly by Lethabarb (20 mL/40 kg LW). Immediately after euthanasia, the ventral articulation of C1 was exposed and cerebrospinal fluid (CSF) collected using a 23 g needle. The head was then removed and subjected to perfusion fixation. Briefly, the carotid arteries were exposed and a small catheter inserted and ligated to secure the perfusion lines. Two liters of 0.1% phosphate buffered saline (PBS) containing 3000 I.U of heparin/L was then slowly perfused via the ligated vessels at a pressure of 90 mm Hg using a Microgon peristaltic Pump (Microgon, Laguna Hills, Calif.). Once complete this was replaced with 4% paraformaldehyde (Sigma-Alrich) in 0.1% PBS and a further two liters allowed to perfuse slowly through the tissues of the head. Once complete, catheters were removed and the whole head placed at 4° C. overnight to complete fixation. Twenty-four hours post perfusion fixation the brain was removed from the skull and placed in 10% formal saline for storage until dissection for processing to wax sections.
Absorbance was measured with a spectrophotometer at 440 nm. […] The lower limit of quantification (LOQ) was 25 μg/mL.

Row | SMILES | distinctive tremor spike, frequency range (mice) | movement (mice) | mean serum bromide concentration ([1]; 6 hours after oral 300 mg/kg potassium bromide, n=3) [µg/mL] | final mean serum bromide concentration ([1]; 48 hours after oral 300 mg/kg potassium bromide, n=6) [µg/mL]
1 | CC(C)=C[C@H]1O[C@H]2[C@H]3O[C@@]34[C@H](CC[C@@]3(C)[C@@]4(O)CC[C@H]4Cc5c([nH]c6ccc7c(c56)C[C@@H]5[C@@H](C7=O)C(C)(C)OC5(C)C)[C@@]43C)O[C@@H]2C(C)(C)O1 [lolitrem B] | 10-19 Hz | decrease in movement | – | –
2 | [Br-].[K+] [potassium bromide] | – | – | 899.43 | 804.34
